Experimental data from ChEMBL document CHEMBL1201862, “PubChem BioAssay data set” (2004).
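Five compound concentrations were applied to cells in 96-well plates for 48 hours; endpoints were derived by simple linear interpolation of the resulting dose-response curve. At the GI50, growth is halved.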 Active and inactive are the calls of the source. Cut-off read from the data, not from the text of the source: active = GI50 up to about 1.1 µM and inactive = higher.

Key:
Assay in all cases: growth of human tumour cells (NCI), 48 h
MOLT-4 = tested on: MOLT-4
RPMI-8226 = tested on: RPMI-8226
HOP-62 = tested on: HOP-62
KM12 = tested on: KM12
SK-MEL-2 = tested on: SK-MEL-2
A549 = tested on: A549
UACC-62 = tested on: UACC-62
MDA-MB-231 = tested on: MDA-MB-231
U-251 = tested on: U-251
Malme-3M = tested on: Malme-3M
MDA-N = tested on: MDA-N
SR = tested on: SR
786-0 = tested on: 786-0
HCT-116 = tested on: HCT-116
SF-295 = tested on: SF-295
EKVX = tested on: EKVX
A498 = tested on: A498
MDA-MB-435 = tested on: MDA-MB-435
SF-539 = tested on: SF-539
TK-10 = tested on: TK-10

Measured: GI50

O=C1O[C@H]2[C@H](OC(=O)c3cc(O)c(O)c(O)c3)[C@@H](OC(=O)c3cc(O)c(O)c4c3[C@@H]3C1=CC(=O)C(O)(O)C3(O)O4)[C@H](OC(=O)c1cc(O)c(O)c(O)c1)O[C@@H]2COC(=O)c1cc(O)c(O)c(O)c1 (some centres not stated) [TERCHEBIN]
inactive: MOLT-4 41.9 µM | RPMI-8226 51.5 µM | HOP-62 99.3 µM | KM12 14.6 µM | SK-MEL-2 > 100 µM | A549 23.9 µM | UACC-62 50.6 µM | MDA-MB-231 41.9 µM | U-251 54.1 µM | Malme-3M > 100 µM | MDA-N 53.5 µM | SR 44.2 µM | 786-0 60.8 µM | HCT-116 33 µM | SF-295 48.4 µM | EKVX 39.4 µM | A498 > 100 µM | MDA-MB-435 38.4 µM

CCCCc1ccc(-n2c(C)c(COC(=O)NC)c(COC(=O)NC)c2C)cc1
active: SR 0.818 µM | A498 1.1 µM
inactive: RPMI-8226 4.47 µM | HOP-62 8.97 µM | KM12 12.7 µM | A549 6.08 µM | UACC-62 2.29 µM | MDA-MB-231 4.9 µM | U-251 4.92 µM | Malme-3M 6.07 µM | SF-539 4.37 µM | MDA-N 13.2 µM | TK-10 2.28 µM | 786-0 4.08 µM | HCT-116 4.08 µM | SF-295 8.61 µM | EKVX 13 µM | MDA-MB-435 12.5 µM

Nc1nc2ccc(OCC(O)CN3CCCCC3)cc2[n+]([O-])n1 (configuration not stated)
inactive: MOLT-4 > 100 µM | RPMI-8226 > 100 µM | KM12 > 100 µM | SK-MEL-2 > 100 µM | A549 > 100 µM | MDA-MB-231 > 100 µM | U-251 > 100 µM | Malme-3M > 100 µM | SF-539 > 100 µM | MDA-N > 100 µM | SR > 100 µM | TK-10 > 100 µM | 786-0 > 100 µM | HCT-116 > 100 µM | SF-295 > 100 µM | A498 > 100 µM | MDA-MB-435 > 100 µM

CN(C(=O)C12C3C4(C(=O)O)C1(C(=O)N(C)C(C)(C)C)C1C2(C(=O)O)C3(C(=O)N(C)C(C)(C)C)C14C(=O)N(C)C(C)(C)C)C(C)(C)C (configuration not stated)
inactive: MOLT-4 > 100 µM | HOP-62 > 100 µM | KM12 > 100 µM | SK-MEL-2 > 100 µM | A549 > 100 µM | UACC-62 > 100 µM | MDA-MB-231 > 100 µM | U-251 > 100 µM | SF-539 > 100 µM | MDA-N > 100 µM | SR > 100 µM | TK-10 > 100 µM | 786-0 > 100 µM | HCT-116 > 100 µM | SF-295 > 100 µM | EKVX > 100 µM | A498 > 100 µM | MDA-MB-435 > 100 µM

COC1CC(OC2CCC3(C)C(CCC45CCC(C6=CC(=O)OC6)C(C)(CCC43)C5=O)C2)OC(C)C1O (configuration not stated)
inactive: MOLT-4 32.1 µM | RPMI-8226 > 10 µM | HOP-62 27 µM | KM12 64.4 µM | SK-MEL-2 31.3 µM | A549 28.5 µM | UACC-62 > 100 µM | MDA-MB-231 > 100 µM | U-251 46.2 µM | SF-539 20.3 µM | MDA-N > 100 µM | SR 28.1 µM | TK-10 51.2 µM | 786-0 23.6 µM | HCT-116 35.1 µM | SF-295 33.9 µM | EKVX 32.4 µM | A498 71.4 µM | MDA-MB-435 > 100 µM

Cc1ccc(S(=O)(=O)N2CC3OC(C)(C)OC3C2CO)cc1 (configuration not stated)
inactive: MOLT-4 > 100 µM | RPMI-8226 > 100 µM | HOP-62 > 100 µM | KM12 > 100 µM | SK-MEL-2 > 100 µM | A549 > 100 µM | MDA-MB-231 > 100 µM | U-251 > 100 µM | Malme-3M > 100 µM | SF-539 > 100 µM | MDA-N > 100 µM | SR > 100 µM | TK-10 > 100 µM | 786-0 > 100 µM | HCT-116 > 100 µM | SF-295 > 100 µM | A498 > 100 µM | MDA-MB-435 > 100 µM

NC(=O)N/N=C1\C[C@H]2CCCC[C@H]2C1
inactive: MOLT-4 > 100 µM | RPMI-8226 > 100 µM | HOP-62 > 100 µM | KM12 > 100 µM | SK-MEL-2 > 100 µM | A549 > 100 µM | UACC-62 > 100 µM | MDA-MB-231 > 100 µM | U-251 > 100 µM | SF-539 > 100 µM | MDA-N > 100 µM | SR > 100 µM | TK-10 > 100 µM | 786-0 > 100 µM | HCT-116 > 100 µM | SF-295 > 100 µM | EKVX > 100 µM | A498 > 100 µM | MDA-MB-435 > 100 µM
